Target: T1, human FOXO1 (constitutively active form Thr24Ala, Ser256Ala, Ser319Ala) (Homo sapiens, UniProt Q12778, S256A/S319A/T24A)
T1 construct: expressed in transfected cells; host or cells: HEK293 cells transfected with pcDNA3.1 plasmid
Test: FOXO1 inhibitor activity assay: cell-based transcriptional (luciferase) reporter assay in HEK293 cells
Details: HEK293 cells transfected with insulin response element firefly luciferase reporter, FOXO1 and Renilla luciferase; 10-point dose response 50 μM to 2.5 nM; 24 hours
Outline: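 IC50 and maximal inhibition were fitted by 4-parameter logistic regression on normalized firefly/Renilla luciferase ratios. The 0% reference used RFP in place of FOXO1, and the 100% reference was DMSO-only with all plasmids.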

T1 sequence (Q12778 whole entry T24A/S256A/S319A): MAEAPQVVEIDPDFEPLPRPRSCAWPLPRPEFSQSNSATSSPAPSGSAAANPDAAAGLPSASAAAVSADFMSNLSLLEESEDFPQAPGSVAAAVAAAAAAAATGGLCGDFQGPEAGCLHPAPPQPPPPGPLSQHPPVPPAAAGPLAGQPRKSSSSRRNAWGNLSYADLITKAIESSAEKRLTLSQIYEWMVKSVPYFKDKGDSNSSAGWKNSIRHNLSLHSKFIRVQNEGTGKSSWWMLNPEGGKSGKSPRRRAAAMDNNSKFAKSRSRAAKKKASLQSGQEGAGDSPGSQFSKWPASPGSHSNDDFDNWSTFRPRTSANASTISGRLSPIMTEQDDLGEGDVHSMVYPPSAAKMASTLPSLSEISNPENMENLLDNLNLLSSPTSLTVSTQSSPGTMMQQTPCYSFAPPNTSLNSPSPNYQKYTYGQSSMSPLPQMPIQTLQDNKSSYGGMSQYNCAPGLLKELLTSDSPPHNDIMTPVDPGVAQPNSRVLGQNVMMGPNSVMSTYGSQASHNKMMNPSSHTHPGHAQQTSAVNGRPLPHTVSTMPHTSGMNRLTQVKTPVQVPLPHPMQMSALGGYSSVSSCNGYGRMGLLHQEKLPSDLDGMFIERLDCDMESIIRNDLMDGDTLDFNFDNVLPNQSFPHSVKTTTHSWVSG

| SMILES | IC50 [nM] |
| --- | --- |
| CC1CN(c2ccc(C(=O)Nc3cc(-c4nc5ccccc5[nH]4)n(C)n3)cn2)CC(CO)O1 (single isomer, unassigned) [Compound A-292, N-[5-(1H-benzimidazol-2-yl)-1-methyl-pyrazol-3-yl]-6-[2-(hydroxymethyl)-6-methyl-morpholin-4-yl]pyridine-3-carboxamide] | < 100 |
| CC(=O)N(C)C1CCN(c2ccc(C(=O)Nc3cc(-c4nc5ccccc5[nH]4)[nH]n3)cn2)CC1 [Compound A-170, 6-[4-[acetyl(methyl)amino]-1-piperidyl]-N-[5-(1H-benzimidazol-2-yl)-1H-pyrazol-3-yl]pyridine-3-carboxamide] | 100 to 300 |
| Cn1nc(NC(=O)c2ccc(N3C[C@H]4COC[C@H]4C3)nc2)cc1-c1nc2ccccc2[nH]1 [Compound A-267, 6-[(3aR,6aS)-1,3,3a,4,6,6a-hexahydrofuro[3,4-c]pyrrol-5-yl]-N-[5-(1H-benzimidazol-2-yl)-1-methyl-pyrazol-3-yl]pyridine-3-carboxamide] | < 100 |
| COc1ccc(C(=O)Nc2n[nH]c(-c3nc4ccccc4[nH]3)c2Br)cc1Cl [Compound A-71, N-[5-(1H-benzimidazol-2-yl)-4-bromo-1H-pyrazol-3-yl]-3-chloro-4-methoxy-benzamide] | 300 to 1000 |
| COCC1CN(c2ccc(C(=O)Nc3cc(-c4nc5ccccc5[nH]4)n(C)n3)cn2)C1 [Compound A-272, N-[5-(1H-benzimidazol-2-yl)-1-methyl-pyrazol-3-yl]-6-[3-(methoxymethyl)azetidin-1-yl]pyridine-3-carboxamide] | < 100 |
| Cc1cc(C(=O)Nc2cc(-c3nc4ccccc4[nH]3)[nH]n2)ccc1OCCO [Compound A-113, N-[5-(1H-benzimidazol-2-yl)-1H-pyrazol-3-yl]-4-(2-hydroxyethoxy)-3-methyl-benzamide] | < 100 |
| O=C(Nc1cc(-c2nc3ccccc3[nH]2)[nH]n1)c1ccc(N2CCS(=O)(=O)CC2)nc1 [Compound A-49, N-[5-(1H-benzimidazol-2-yl)-1H-pyrazol-3-yl]-6-(1,1-dioxo-1,4-thiazinan-4-yl)pyridine-3-carboxamide] | 300 to 1000 |
| O=C(Nc1ccccc1)Nc1cc(-c2nc3ccccc3[nH]2)[nH]n1 [Compound A-140, 1-[5-(1H-benzimidazol-2-yl)-1H-pyrazol-3-yl]-3-phenyl-urea] | > 1000 |
| CC(=O)N1CCN(c2ccc(C(=O)Nc3cc(-c4nc5ccccc5[nH]4)[nH]n3)cn2)CC1 [Compound A-233] | 300 to 1000 |
| C[C@H]1CN(c2ccc(C(=O)Nc3cc(-c4nc5ccccc5[nH]4)n(C)n3)cn2)C[C@H](C)N1 [Compound A-288, N-[5-(1H-benzimidazol-2-yl)-1-methyl-pyrazol-3-yl]-6-[(3S,5S)-3,5-dimethylpiperazin-1-yl]pyridine-3-carboxamide] | 100 to 300 |
| COc1ccc(C(=O)Nc2cc(C(=O)NC3COC3)[nH]n2)cc1Cl [Compound A-16, 3-[(3-chloro-4-methoxy-benzoyl)amino]-N-(oxetan-3-yl)-1H-pyrazole-5-carboxamide] | > 1000 |
| COc1cc(F)c2[nH]c(-c3cc(NC(=O)c4ccc(N5CCN(C6COC6)CC5)nc4)nn3C)nc2c1 [Compound A-214, N-[5-(7-fluoro-5-methoxy-1H-benzimidazol-2-yl)-1-methyl-pyrazol-3-yl]-6-[4-(oxetan-3-yl)piperazin-1-yl]pyridine-3-carboxamide] | < 100 |
| O=C(Nc1cc(-c2nc3ccccc3[nH]2)[nH]n1)c1ccc(N2C[C@H](O)[C@@H](O)C2)nc1 [Compound A-60, N-[5-(1H-benzimidazol-2-yl)-1H-pyrazol-3-yl]-6-[(3S,4S)-3,4-dihydroxy-pyrrolidin-1-yl]pyridine-3-carboxamide] | > 1000 |
| O=C(Nc1cc(-c2nc3ccccc3[nH]2)[nH]n1)c1ccc(OCCO)c(F)c1 [Compound A-130, N-[5-(1H-benzimidazol-2-yl)-1H-pyrazol-3-yl]-3-fluoro-4-(2-hydroxyethoxy)benzamide] | 300 to 1000 |
| COC[C@H](C)Nc1ccc(C(=O)Nc2cc(-c3nc4ccccc4[nH]3)[nH]n2)cn1 [Compound A-73, N-[5-(1H-benzimidazol-2-yl)-1H-pyrazol-3-yl]-6-[[(1S)-2-methoxy-1-methyl-ethyl]amino]pyridine-3-carboxamide] | 300 to 1000 |
| O=C(Nc1cc(-c2nc3ccccc3[nH]2)[nH]n1)c1ccc(N2CCCC(O)C2)nc1 (stereo not shown) [Compound A-66, N-[5-(1H-benzimidazol-2-yl)-1H-pyrazol-3-yl]-6-(3-hydroxy-1-piperidyl)pyridine-3-carboxamide] | 300 to 1000 |
| CCOC(=O)[C@@H]1CCCN1c1ccc(C(=O)Nc2cc(-c3nc4cccc(F)c4[nH]3)n(C)n2)cn1 [Compound A-147, ethyl (2S)-1-[5-[[5-(4-fluoro-1H-benzimidazol-2-yl)-1-methyl-pyrazol-3-yl]carbamoyl]-2-pyridyl]pyrrolidine-2-carboxylate] | > 1000 |

| SMILES | IC50 [nM] |
| --- | --- |
| Cn1nc(NC(=O)c2ccc(N3CCC4(CC3)COC4)nc2)cc1-c1nc2ccccc2[nH]1 [Compound A-282, N-[5-(1H-benzimidazol-2-yl)-1-methyl-pyrazol-3-yl]-6-(2-oxa-7-azaspiro[3.5]nonan-7-yl)pyridine-3-carboxamide] | < 100 |
| Cn1nc(NC(=O)c2ccc(N3CCC[C@H]3C(=O)O)nc2)cc1-c1nc2cccc(F)c2[nH]1 [Compound A-155, (2S)-1-[5-[[5-(7-fluoro-1H-benzimidazol-2-yl)-1-methyl-pyrazol-3-yl]carbamoyl]-2-pyridyl]pyrrolidine-2-carboxylic acid] | > 1000 |
| Cn1nc(NC(=O)c2ccc(N3CCN4C(=O)CC[C@H]4C3)nc2)cc1-c1nc2ccccc2[nH]1 [Compound A-250] | 300 to 1000 |
| N#Cc1cc(C(=O)Nc2cc(-c3nc4ccccc4[nH]3)[nH]n2)ccc1OCCO [Compound A-144, N-[5-(1H-benzimidazol-2-yl)-1H-pyrazol-3-yl]-3-cyano-4-(2-hydroxy-ethoxy)benzamide] | > 1000 |
| O=C(Nc1cc(-c2nc3cc(F)ccc3[nH]2)[nH]n1)c1ccc(N2CCC(CO)CC2)nc1 [Compound A-80, N-[5-(5-fluoro-1H-benzimidazol-2-yl)-1H-pyrazol-3-yl]-6-[4-(hydroxymethyl)-1-piperidyl]pyridine-3-carboxamide] | < 100 |
| Cn1nc(NC(=O)c2ccc(N3CCN4C(=O)CC[C@@H]4C3)nc2)cc1-c1nc2ccccc2[nH]1 [Compound A-249, 6-[(8aR)-6-oxo-1,3,4,7,8,8a-hexahydropyrrolo[1,2-a]pyrazin-2-yl]-N-[5-(1H-benzimidazol-2-yl)-1-methyl-pyrazol-3-yl]pyridine-3-carboxamide] | 100 to 300 |
| COCCn1nc(NC(=O)c2ccc(N3CC(OC)C3)nc2)cc1-c1nc2ccccc2[nH]1 [Compound A-176, N-[5-(1H-benzimidazol-2-yl)-1-(2-methoxyethyl)pyrazol-3-yl]-6-(3-methoxyazetidin-1-yl)pyridine-3-carboxamide] | > 1000 |
| CC(C)(O)C1CCN(c2ccc(C(=O)Nc3cc(-c4nc5ccccc5[nH]4)[nH]n3)cn2)CC1 [Compound A-47, N-[5-(1H-benzimidazol-2-yl)-1H-pyrazol-3-yl]-6-[4-(1-hydroxy-1-methyl-ethyl)-1-piperidyl]pyridine-3-carboxamide] | < 100 |
| O=C(Nc1cc(-c2nc3ccccc3[nH]2)[nH]n1)c1ccc(N2CCN(C3COC3)CC2)nc1 [Compound A-171, N-[5-(1H-benzimidazol-2-yl)-1H-pyrazol-3-yl]-6-[4-(oxetan-3-yl)-piperazin-1-yl]pyridine-3-carboxamide] | < 100 |
| COc1ccc(C(=O)Nc2cc(-c3cn4ccccc4n3)[nH]n2)cc1Cl [Compound A-112, 3-chloro-N-(5-imidazo[1,2-a]pyridin-2-yl-1H-pyrazol-3-yl)-4-methoxy-benzamide] | 300 to 1000 |
| Cn1nc(NC(=O)c2ccc(N3CCOCC3)cc2)cc1-c1nc2ccccc2[nH]1 [Compound A-95, N-[5-(1H-benzimidazol-2-yl)-1-methyl-pyrazol-3-yl]-4-morpholino-benzamide] | 100 to 300 |
| Cn1nc(NC(=O)c2ccc(N3CC4CC(C3)N4)nc2)cc1-c1nc2ccccc2[nH]1 [Compound A-284, N-[5-(1H-benzimidazol-2-yl)-1-methyl-pyrazol-3-yl]-6-(3,6-diazabicyclo[3.1.1]heptan-3-yl)pyridine-3-carboxamide] | 100 to 300 |
| Cn1nc(NC(=O)c2ccc(OCCO)c(Cl)c2)cc1-c1nc2ccccc2[nH]1 [Compound A-202, N-[5-(1H-benzimidazol-2-yl)-1-methyl-pyrazol-3-yl]-3-chloro-4-(2-hydroxyethoxy)benzamide] | < 100 |
| COCCOc1ccc(C(=O)Nc2cc(-c3nc4cc(OC)ccc4[nH]3)[nH]n2)cc1Cl [Compound A-79, 3-chloro-N-[5-(5-methoxy-1H-benzimidazol-2-yl)-1H-pyrazol-3-yl]-4-(2-methoxyethoxy)benzamide] | < 100 |
| COc1ccc2nc(-c3cc(NC(=O)c4ccc(OC)c(Cl)c4)n[nH]3)cn2c1 [Compound A-161, 3-chloro-4-methoxy-N-[5-(6-methoxyimidazo[1,2-a]pyridin-2-yl)-1H-pyrazol-3-yl]benzamide] | 100 to 300 |
| O=C(Nc1cc(-c2nc3ccccc3[nH]2)[nH]n1)c1ccc(N2CC[C@@H](O)C2)nc1 [Compound A-55, N-[5-(1H-benzimidazol-2-yl)-1H-pyrazol-3-yl]-6-[(3R)-3-hydroxypyrrolidin-1-yl]pyridine-3-carboxamide] | 300 to 1000 |
| Cn1nc(NC(=O)c2ccc(N3CCNC4(CC4)C3)nc2)cc1-c1nc2ccccc2[nH]1 [Compound A-281, N-[5-(1H-benzimidazol-2-yl)-1-methyl-pyrazol-3-yl]-6-(4,7-diazaspiro[2.5]octan-7-yl)pyridine-3-carboxamide] | < 100 |

Source: patent US20230416228A1 (Forkhead Biotherapeutics, Inc., priority 2020, published 2023)
